We go through 17 compounds from publication PMC10014601, “The cyclic peptide G4CP2 enables the modulation of galactose metabolism in yeast by interfering with GAL4 transcriptional activity” (Frontiers in Molecular Biosciences, 2023).

SMILES strings stand for the structures. Where two headings read alike, the source gives them in different places. Where a SMILES comes first, the peptide text is derived from it. [ ]: non-standard residue; d: D form. βAla = NCCC(=O)O

The nature of one data set: in vitro. Particulars: for Papp / Papp at 18 h: pH 7.4. How it is done:
A 96-well acceptor microplate (PTFE, Millipore) was prepared by filled each well with 300 μL of PBS/DMSO (95:5, pH = 7.4), while the donor microplate artificial membrane (PVDF membrane, pore size […], Millipore) was carefully coated with 5 μL of PBL dissolved in dodecane ([…]). Each compound was dissolved in DMSO, diluted with PBS/DMSO (95:5, pH = 7.4) to a final concentration of 40–100 μM in the donor well, filtered with a Millex filter, and applied to the donor microplate wells (200 μL). Next, the donor plate was carefully placed on top of the acceptor plate, thereby bringing the artificial membrane in contact with the buffer solution underneath. The donor well was covered with a lid, and the whole system was left undisturbed overnight (18 h) at 25°C in a container sealed with damp paper towels to prevent evaporation. After incubation, the donor microplate was carefully removed, and UV-vis spectroscopy was used to determine the amounts of the tested compounds in the acceptor and donor microplate wells, respectively. Each sample was evaluated at five wavelengths in four wells during three separate runs; accordingly, all data are presented as mean values with relevant standard deviation. The permeability values (Pe,exp, cm/s) were calculated according to the following expression: Pe,exp = {−VdVa/[(Vd + Va)At]ln–1—da/deq}, in which Vd and Va represent the volumes of the donor and the acceptor wells, respectively, A is the surface of the artificial membrane, t is the permeation time, whilst da and deq are the absorbance measured in the acceptor well and the theoretical equilibrium absorbance value, respectively. After the PAMPA-BBB test for all compounds was completed, the integrity of the lipid membrane was evaluated based on the transport of Lucifer Yellow (Sigma-Aldrich)—a fluorescent molecule with very limited membrane permeability rejected by a uniform and integral lipid membrane performed according to the Millipore protocol lit. n. PC1545EN00 (https://www.sigmaaldrich.com/technical-documents/protocols/biology/membrane-integrity-test-for-lipid-pampa-artificial-membranes.html).

The conditions of data set [1]: PAMPA-BBB literature value, cited from earlier work. The source says:
Supplement Table3.XLSX, sheet "Primer list" | column: Pe,lit
Background: In PAMPA a lipid-coated filter parts donor from acceptor wells.

The target in a further data set is T1, GAL4 (Saccharomyces cerevisiae, UniProt P04386).
T1 construct: endogenous in cells; host or cells: S. cerevisiae BY4741 (S288C derivative) with integrated GAL1p-YFP cassette
Kind of data set: pGAL1::YFP reporter fluorescence (YFP/OD600), BY4741 treated with chemically synthesized peptides (feeding). Format: cell-based. The following applies: 100 µM peptide; 1.00 and 10.00 Gal/Glu ratios; 15.5 h. As for the experimental part: The fluorescence signal of BY4741 pGAL1::YFP reporter strain was measured using a Varioskan LUX multimode microplate reader (ThermoFisher Scientific). Overnight cultures were pelleted, washed twice in water and OD600 normalized for the different cultures. An equal volume of normalized cultures was pipetted in each well of a 96-well plate containing different galactose/glucose (Gal/Glu) ratios. When treating the cells with chemically synthesized G4CP2, a 10 mM stock solution (100% DMSO) was diluted to a working concentration of 100 µM in each well designated for treatment. Fluorescence and OD600 measurements were performed by incubating plates at 28°C, shaking 2 min at 180 rpm, before each measurement.
To test the effects of exogenous administration of chemically synthetized G4CP2 on pGAL1::YFP biosensor, a random-selected control peptide (CP11) was used. […] G4CP2 and CP11 were used at 100 µM to treat BY4741 pGAL1::YFP yeast cells grown in 96-well plates under 1.00 and 10.00 Gal/Glu ratios. YFP/OD600 values were again recorded for 15.5 h (Figure 4D).

Setting [2] is: marked a (or a,b; then also Kerns et al., 2004), ref Di et al., 2003.
Where [3] appears, read: marked b, ref Kerns et al., 2004.

In the data set “in vitro” (pig, PAMPA), `Cc1nnc2n1-c1ccc(Cl)cc1C(c1ccccc1)=NC2` [Alprazolam] showed a Papp of 5.1 ± 0.4 ×10⁻⁶ cm/s. The “Pe,lit” value in data set [1] (setting [2]) was 5.4a 10-6 cm/s.

With `CC(C)NCC(O)COc1ccc(CC(N)=O)cc1` (stereo not shown) [Atenolol], the apparent permeability coefficient (Papp) at 18 h in the data set “in vitro” (pig, PAMPA) is 0.74 ± 0.04 ×10⁻⁶ cm/s.

In “in vitro” (PAMPA), `C/C=C/C[C@@H](C)[C@@H](O)[C@H]1C(=O)N[C@@H](C(C)C)C(=O)N(C)CC(=O)N(C)[C@@H](CC(C)C)C(=O)N[C@@H](C(C)C)C(=O)N(C)[C@@H](CC(C)C)C(=O)N[C@@H](C)C(=O)N[C@H](C)C(=O)N(C)[C@@H](CC(C)C)C(=O)N(C)[C@@H](CC(C)C)C(=O)N(C)[C@@H](C(C)C)C(=O)N1C` [CSD] had a Papp of 0.93 ± 0.5 ×10⁻⁶ cm/s.

Turning to `Cn1c(=O)c2c(ncn2C)n(C)c1=O` [Caffeine], the “Pe,exp” value in the data set “in vitro” (PAMPA-BBB validation, porcine brain lipid in dodecane (20 mg/L), PBS/DMSO 95:5 pH 7.4, 40–100 μM donor, 18 h, 25°C, UV-vis, mean ± SD, four wells, three runs) was 1.7 ± 0.2 10-6 cm/s.

In the case of `CCN(CC)CCCC(C)Nc1ccnc2cc(Cl)ccc12` (stereo not shown) [Chloroquine], in “in vitro” (pig, PAMPA), the apparent permeability coefficient (Papp) at 18 h amounted to 2.4 ± 0.1 ×10⁻⁶ cm/s.

`CN(C)CCCN1c2ccccc2Sc2ccc(Cl)cc21` [Chlorpromazine] returned a Papp at 18 h in “in vitro” (pig, PAMPA) of 6.8 ± 0.3 ×10⁻⁶ cm/s.

`CN1C(=O)CN=C(c2ccccc2)c2cc(Cl)ccc21` [Diazepam] registered a Papp in “in vitro” (pig, PAMPA) of 13.7 ± 0.8 ×10⁻⁶ cm/s.

Turning to `OCCN(CCO)c1nc(N2CCCCC2)c2nc(N(CCO)CCO)nc(N3CCCCC3)c2n1` [Dipyridamole], the Papp at 18 h in the data set “in vitro” (pig, PAMPA) amounted to 3.8 ± 0.4 ×10⁻⁶ cm/s. Further, the “Pe,lit” value in data set [1] (setting [3]) was 3.5b 10-6 cm/s.

Take `CC(C)[C@H]1C(=O)O[C@H](C(C)C)C(=O)N(C)[C@@H](C(C)C)C(=O)O[C@H](C(C)C)C(=O)N(C)[C@@H](C(C)C)C(=O)O[C@H](C(C)C)C(=O)N1C` [EnB]: the Papp at 18 h in the data set “in vitro” (PAMPA) was 8.3 ± 0.7 ×10⁻⁶ cm/s.

In the data set “in vitro” (pig, PAMPA), `CCn1cc(C(=O)O)c(=O)c2cc(F)c(N3CCNCC3)nc21` [Enoxacin] displayed a Papp at 18 h of 0.98 ± 0.3 ×10⁻⁶ cm/s.

Consider `CSCC[C@@H]1NC(=O)[C@H](CC(=O)O)NC(=O)[C@H](Cc2ccccc2)NC(=O)[C@H](Cc2ccccc2)NC(=O)[C@H](Cc2ccc(O)cc2)NC(=O)[C@H](CCCNC(=N)N)NC(=O)CCNC(=O)[C@H](Cc2ccc(O)cc2)NC(=O)[C@H](Cc2c[nH]c3ccccc23)NC1=O` [G4CP2] (cyclo(DMWY[βAla]RYFF)), for which, in “in vitro” (PAMPA), the passive permeability classification entry is reported as “moderate-to-good” and the Papp is 3.3 ± 0.4 ×10⁻⁶ cm/s. For the same compound, the “YFP fluorescence signal over time (YFP/OD600)” value at GAL4 is “strongly attenuated”.

Turning to `CCn1cc(C(=O)O)c(=O)c2cc(F)c(N3CCNC(C)C3)c(F)c21` (stereo not shown) [Lomefloxacin], the Papp at 18 h in the data set “in vitro” (pig, PAMPA) is 1.4 ± 0.1 ×10⁻⁶ cm/s.

As to `CCn1cc(C(=O)O)c(=O)c2cc(F)c(N3CCNCC3)cc21` [Norfloxacin], the Papp at 18 h in “in vitro” (pig, PAMPA) turned out to be 0.15 ± 0.01 ×10⁻⁶ cm/s.

For the compound `O=C1Nc2ccc(Cl)cc2C(c2ccccc2)=NC1O` (stereo not shown) [Oxazepam], the “Pe,lit” value in data set [1] (setting [2]) is 10a 10-6 cm/s.

In the case of `CN1C(C(=O)Nc2ccccn2)=C(O)c2ccccc2S1(=O)=O` [Piroxicam], in data set [1] (setting [2]), the “Pe,lit” value is 2.5a 10-6 cm/s.

`CC(=O)[C@H]1CC[C@H]2[C@@H]3CCC4=CC(=O)CC[C@]4(C)[C@H]3CC[C@]12C` [Progesterone]: the Papp at 18 h in the data set “in vitro” (pig, PAMPA) turned out to be 10.9 ± 0.7 ×10⁻⁶ cm/s.

For the compound `COc1cc(Cc2cnc(N)nc2N)cc(OC)c1OC` [Trimethoprim], the Papp at 18 h in the data set “in vitro” (pig, PAMPA) was 2.5 ± 0.2 ×10⁻⁶ cm/s. For the same compound, the “Pe,lit” value in data set [1] (setting [3]) is reported as 2.2b 10-6 cm/s.

For orientation: Papp means a coefficient for how fast a substance crosses the barrier. A high value points to fast passage.
